Measurements taken from article PMC12851022, “Targeting the Spliceosomal Protein USP39 Through Allosteric Ligands and PROTAC‐Induced Degradation” (Angewandte Chemie (International Ed. in English), 2025).

How the values were obtained:
Type in all cases: cell-based
USP39 [1] = biological target: T1, USP39 (Homo sapiens, UniProt Q53GS9); experiment: Western blot of USP39 levels in VHL KO HeLa cells; parameters: endogenous in cells; host or cells: VHL-KO HeLa
T1 sequence (Q53GS9 1-565): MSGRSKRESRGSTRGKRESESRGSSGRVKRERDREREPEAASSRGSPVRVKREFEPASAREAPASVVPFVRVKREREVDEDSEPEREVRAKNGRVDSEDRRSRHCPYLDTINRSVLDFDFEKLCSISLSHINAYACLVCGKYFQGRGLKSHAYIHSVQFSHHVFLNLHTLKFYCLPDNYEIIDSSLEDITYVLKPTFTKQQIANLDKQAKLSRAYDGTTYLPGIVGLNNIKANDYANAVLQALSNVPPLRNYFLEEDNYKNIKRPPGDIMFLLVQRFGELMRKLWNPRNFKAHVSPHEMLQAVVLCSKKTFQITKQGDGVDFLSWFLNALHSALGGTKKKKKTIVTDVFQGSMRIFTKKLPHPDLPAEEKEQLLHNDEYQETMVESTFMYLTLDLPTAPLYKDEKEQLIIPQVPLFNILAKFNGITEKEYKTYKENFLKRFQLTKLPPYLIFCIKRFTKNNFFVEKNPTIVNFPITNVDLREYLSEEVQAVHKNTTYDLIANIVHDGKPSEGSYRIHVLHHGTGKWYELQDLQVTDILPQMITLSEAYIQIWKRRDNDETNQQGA
Experimental: (§1) Figure 4 Effective and selective degradation of USP39 in cells by USP39‐PROTACs. a) Optimization of cellular degradation assay in HeLa cells transiently overexpressing USP39‑OFP (HeLa‐USP39‐OFP). […] GAPDH was used as a loading control. g) Proteasome dependence of USP39 degradation. HeLa‐WT cells were co‐treated with MG132 (0.25 µM) or DMSO control and USP39_PROTAC_V1 for 24 h ST. h) Representative immunofluorescence images of HeLa‐USP39_OFP cells treated with DMSO (NT), USP39_PROTAC_V1 (10 nM, 24 h), or USP39_PROTAC_V1 + MLN4924 (1 µM), stained for USP39 (red) and nuclei (blue). i) Quantification of USP39 degradation by fluorescence microscopy, showing DC50 values of 13 nM without MLN4924 (orange) and 204 nM with MLN4924 (blue) (MLN4924 = 5 uM). j) VHL‐dependence of PROTAC‐induced degradation. Schematic of PROTAC recruitment to VHL via hydroxyl‐proline interactions (His115, Ser111). Western blot comparing USP39 levels in VHL WT and VHL KO HeLa cells treated with USP39_PROTAC_V1. k) Fluorescence assay in HEK293T cells co‐expressing USP39‑OFP and either VHL_WT‑EGFP or VHL_m (Δ91–121). […] Comparison of untreated (NT) and USP39_PROTAC_V1–treated (10 nM, 24 h) samples. Percent spliced/unspliced (S/U) ratios are shown, reflecting USP39‐deficiency–associated splicing defects. Data represent at least four independent biological replicates. […]

USP39 / VHL = USP39 / VHL (Homo sapiens, UniProt P40337+Q53GS9); experiment: Co-immunoprecipitation of VHL with western blot for ubiquitin, USP39 and VHL; settings: in the presence of MLN4924
USP39 / VHL, sequence (P40337 whole entry, one chain of several): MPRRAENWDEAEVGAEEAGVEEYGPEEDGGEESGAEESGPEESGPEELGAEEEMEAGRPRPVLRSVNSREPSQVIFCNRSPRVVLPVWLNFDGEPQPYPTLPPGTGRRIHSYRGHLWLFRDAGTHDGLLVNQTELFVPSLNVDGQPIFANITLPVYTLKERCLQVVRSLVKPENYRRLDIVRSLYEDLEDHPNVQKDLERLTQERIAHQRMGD
USP39 / VHL, sequence (Q15370 whole entry partner, one chain of several): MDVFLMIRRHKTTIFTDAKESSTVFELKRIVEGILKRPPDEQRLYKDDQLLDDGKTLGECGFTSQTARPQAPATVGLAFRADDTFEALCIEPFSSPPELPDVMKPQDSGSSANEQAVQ
USP39 / VHL, sequence (Q15369 whole entry partner, one chain of several): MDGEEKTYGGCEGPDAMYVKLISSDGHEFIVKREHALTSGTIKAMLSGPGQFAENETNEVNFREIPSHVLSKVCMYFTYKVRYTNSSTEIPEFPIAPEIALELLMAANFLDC

USP39 [2] = biological target: T1, USP39; experiment: Western blot of USP39 levels in HeLa-WT cells; parameters: endogenous in cells; host or cells: HeLa-WT; settings: MG132 0.25 µM, 24 h ST
Experimental: as §1

[3] = biological target: T2, USP39 / VHL_m ternary complex (Homo sapiens, UniProt P40337+Q53GS9, DEL91-121); experiment: FRET assay of ternary complex formation in cells, VHL_m; settings: in the presence of MLN4924
T2 construct: expressed in transfected cells; host or cells: HEK293T
T2 sequence (P40337 with tags, fused parts or gaps DEL91-121, one chain of several): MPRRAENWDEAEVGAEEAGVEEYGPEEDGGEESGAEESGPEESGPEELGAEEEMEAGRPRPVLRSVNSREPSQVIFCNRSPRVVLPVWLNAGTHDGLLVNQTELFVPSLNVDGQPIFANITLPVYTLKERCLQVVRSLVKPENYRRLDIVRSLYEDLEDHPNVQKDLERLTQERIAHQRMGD
Experimental: as §1

USP39 [4] = biological target: T1, USP39; experiment: USP39 degradation across four cell lines (HeLa, HEK293T, LNCap, Kelly); parameters: endogenous in cells; host or cells: HeLa-WT; HEK293T; LNCap; Kelly; settings: for Concentration at which USP39 degradation was initiated: HeLa, HEK293T, LNCap, Kelly

USP39 degradation in VHL-KO HeLa cells (USP39 [1]): significantly attenuated | USP39 degradation under co-treatment with proteasome inhibitor MG132 (USP39 [2]): markedly suppressed USP39 degradation | FRET signal of ternary complex formation [3]: minimal signal | Concentration above which USP39 levels recover (hook-effect) (USP39 [4]): above 500 nM | Concentration at which USP39 degradation was initiated (USP39 [4]; 6 h of treatment): 5 nM | Concentration at which USP39 degradation was initiated (USP39 [4]; 24 h of treatment): 1 nM
Structure (SMILES): Cc1ncsc1-c1ccc(CNC(=O)C2CC(O)CN2C(=O)C(NC(=O)CCOCCOCCOCCNC(=O)c2csc(Nc3ccc(Cl)cc3)n2)C(C)(C)C)cc1 (stereo not shown) [USP39_PROTAC_V1]
Co-immunoprecipitation from VHL pull-downs (USP39 / VHL): enrichment of USP39 and polymerized ubiquitin
